Data taken from patent US6737383B1, “Herbicidal oxadiazolidines” (priority 1999, dated 2004).

Legend:
bedstraw = test: Test B pre/postemergence bedstraw; type: in vivo, Galium aparine
Method in brief: (§1)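 Response is a visual 0-to-10 score relative to untreated plants, where 0 means no effect and 10 means complete control, taken twelve to sixteen days after application. Treatments went onto soil at planting and onto foliage of 1- to 4-leaf plants, using a surfactant-containing non-phytotoxic solvent.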

blackgrass = test: Test B pre/postemergence blackgrass; type: in vivo, Alopecurus myosuroides; conditions: for Plant response rating, Blackgrass: scale of 0 to 10 where 0 is no effect and 10 is complete control
Method in brief: as §1

surinam grass = test: Test B pre/postemergence surinam grass; type: in vivo, Brachiaria decumbens
Method in brief: as §1

cocklebur = test: Test B pre/postemergence cocklebur; type: in vivo, Xanthium strumarium
Method in brief: as §1

corn = test: Test B pre/postemergence corn; type: in vivo, Zea mays
Method in brief: as §1

crabgrass = test: Test B pre/postemergence crabgrass; type: in vivo, Digitaria sanguinalis
Method in brief: as §1

giant foxtail = test: Test B pre/postemergence giant foxtail; type: in vivo, Setaria faberii
Method in brief: as §1

morningglory = test: Test B pre/postemergence morningglory; type: in vivo, Ipomoea hederacea
Method in brief: as §1

pigweed = test: Test B pre/postemergence pigweed; type: in vivo, Amaranthus retroflexus
Method in brief: as §1

rape = test: Test B pre/postemergence rape; type: in vivo, Brassica napus
Method in brief: as §1

soybean = test: Test B pre/postemergence soybean; type: in vivo, Glycine max
Method in brief: as §1

sugar beet = test: Test B pre/postemergence sugar beet; type: in vivo, Beta vulgaris
Method in brief: as §1

velvetleaf = test: Test B pre/postemergence velvetleaf; type: in vivo, Abutilon theophrasti
Method in brief: as §1

wheat = test: Test B pre/postemergence wheat; type: in vivo, Triticum aestivum
Method in brief: as §1

wild oat = test: Test B pre/postemergence wild oat; type: in vivo, Avena fatua
Method in brief: as §1

purple nutsedge = test: Test B pre/postemergence purple nutsedge; type: in vivo, Cyperus rotundus
Method in brief: as §1

[1] = Postemergence, Rate 62 g/ha, scale of 0 to 10, 0 is no effect, 10 is complete control
[2] = Postemergence, Rate 125 g/ha, scale of 0 to 10 where 0 is no effect and 10 is complete control
[3] = Postemergence, Rate 250 g/ha, scale of 0 to 10, 0 is no effect, 10 is complete control
[4] = Preemergence, Rate 62 g/ha, scale 0 to 10 (0 no effect, 10 complete control)
[5] = Preemergence, Rate 500 g/ha, scale of 0 to 10 where 0 is no effect and 10 is complete control
[6] = Postemergence, Rate 500 g/ha, scale of 0 to 10 where 0 is no effect and 10 is complete control
[7] = Preemergence, Rate 125 g/ha, scale of 0 to 10 where 0 is no effect and 10 is complete control

CC(C)N(C(=O)n1oc(=O)n(CCC(F)(F)F)c1=O)c1ccccc1 [Compound 584]
6: Crabgrass plant response rating (crabgrass; [3]) | Plant response rating, Wheat (wheat; [6])
2: Plant response rating, Cocklebur (cocklebur; [2]) | Plant response rating, Corn (corn; [2]) | Corn plant response rating (0 to 10 scale) (corn; Preemergence, Rate 250 g/ha) | Plant response rating, Redroot pigweed (pigweed; [2]) | Redroot pigweed plant response rating (pigweed; [3]) | Plant response rating, Sugarbeets (sugar beet; [2]) | Sugarbeets plant response rating (sugar beet; [7]) | Plant response rating, Wheat (wheat; [2]) | Wild oats plant response rating (wild oat; [3]) | Wild oats plant response rating (wild oat; [7])
8: Blackgrass plant response rating (0 to 10 scale) (blackgrass; Preemergence, Rate 250 g/ha) | Crabgrass plant response rating (crabgrass; [4]) | Crabgrass plant response rating (crabgrass; [7]) | Plant response rating, Giant foxtail (giant foxtail; [2]) | Giant foxtail plant response rating (giant foxtail; [7]) | Redroot pigweed plant response rating (pigweed; [7]) | Plant response rating, Sugarbeets (sugar beet; [6])
5: Bedstraw plant response rating (bedstraw; [1]) | Plant response rating, Bedstraw (bedstraw; [2]) | Blackgrass plant response rating (blackgrass; [1]) | Morningglory plant response rating (morningglory; [3]) | Sugarbeets plant response rating (sugar beet; [3]) | Sugarbeets plant response rating (sugar beet; [5]) | Plant response rating, Velvetleaf (velvetleaf; [6]) | Velvetleaf plant response rating (velvetleaf; [5])
1: Crabgrass plant response rating (crabgrass; [1]) | Morningglory plant response rating (morningglory; [1])
0: Cocklebur plant response rating (cocklebur; [1]) | Cocklebur plant response rating (cocklebur; [4]) | Cocklebur plant response rating (cocklebur; [7]) | Cocklebur plant response rating (0 to 10 scale) (cocklebur; Preemergence, Rate 250 g/ha) | Cocklebur plant response rating (cocklebur; [5]) | Corn plant response rating (corn; [1]) | Corn plant response rating (corn; [4]) | Corn plant response rating (corn; [7]) | Soybean plant response rating (soybean; [4]) | Soybean plant response rating (soybean; [7]) | Soybean plant response rating (soybean; [5]) | Sugarbeets plant response rating (sugar beet; [4]) | Velvetleaf plant response rating (velvetleaf; [4]) | Velvetleaf plant response rating (velvetleaf; [7]) | Wheat plant response rating (wheat; [4]) | Wheat plant response rating (wheat; [7]) | Plant response rating, Wild oats (wild oat; [2]) | Wild oats plant response rating (wild oat; [4]) | Nutsedge plant response rating (purple nutsedge; [1]) | Plant response rating, Nutsedge (purple nutsedge; [2]) | Nutsedge plant response rating (purple nutsedge; [3]) | Nutsedge plant response rating (purple nutsedge; [4]) | Nutsedge plant response rating (purple nutsedge; [7]) | Nutsedge plant response rating (purple nutsedge; [5])
4: Cocklebur plant response rating (cocklebur; [3]) | Plant response rating, Cocklebur (cocklebur; [6]) | Plant response rating, Corn (corn; [6]) | Plant response rating, Morningglory (morningglory; [2]) | Morningglory plant response rating (morningglory; [4]) | Morningglory plant response rating (morningglory; [7]) | Plant response rating, Rape (rape; [2]) | Rape plant response rating (rape; [7]) | Rape plant response rating (rape; [5]) | Plant response rating, Soybean (soybean; [6])
7: Plant response rating, Blackgrass (blackgrass; Postemergence, Rate 125 g/ha) | Blackgrass plant response rating (blackgrass; [3]) | Plant response rating, Blackgrass (blackgrass; Postemergence, Rate 500 g/ha) | B. signalgrass plant response rating (surinam grass; [3]) | B. signalgrass plant response rating (surinam grass; [4]) | B. signalgrass plant response rating (surinam grass; [7]) | Plant response rating, Crabgrass (crabgrass; [2]) | Giant foxtail plant response rating (giant foxtail; [1]) | Plant response rating, Redroot pigweed (pigweed; [6]) | Redroot pigweed plant response rating (pigweed; [4]) | Plant response rating, Wild oats (wild oat; [6])
3: B. signalgrass plant response rating (surinam grass; [1]) | Plant response rating, B. signalgrass (surinam grass; [2]) | Corn plant response rating (corn; [3]) | Corn plant response rating (corn; [5]) | Plant response rating, Morningglory (morningglory; [6]) | Morningglory plant response rating (morningglory; [5]) | Rape plant response rating (rape; [1]) | Rape plant response rating (rape; [4]) | Plant response rating, Soybean (soybean; [2]) | Soybean plant response rating (soybean; [3]) | Plant response rating, Velvetleaf (velvetleaf; [2]) | Velvetleaf plant response rating (velvetleaf; [3]) | Wheat plant response rating (wheat; [3]) | Wheat plant response rating (wheat; [5]) | Plant response rating, Nutsedge (purple nutsedge; [6])
10: Giant foxtail plant response rating (giant foxtail; [5])
9: Bedstraw plant response rating (bedstraw; [3]) | Bedstraw plant response rating (bedstraw; [4]) | Bedstraw plant response rating (0 to 10 scale) (bedstraw; Preemergence, Rate 250 g/ha) | Bedstraw plant response rating (bedstraw; [5]) | Blackgrass plant response rating (blackgrass; [4]) | Plant response rating, B. signalgrass (surinam grass; [6]) | B. signalgrass plant response rating (surinam grass; [5]) | Plant response rating, Crabgrass (crabgrass; [6]) | Crabgrass plant response rating (crabgrass; [5]) | Giant foxtail plant response rating (giant foxtail; [3]) | Plant response rating, Giant foxtail (giant foxtail; [6]) | Giant foxtail plant response rating (giant foxtail; [4]) | Redroot pigweed plant response rating (pigweed; [5]) | Rape plant response rating (rape; [3]) | Plant response rating, Rape (rape; [6]) | Wild oats plant response rating (wild oat; [5])
